# Measured values published in patent US20240238243A1, “METHODS AND COMPOSITIONS FOR TREATMENT OF HEART FAILURE WITH PRESERVED EJECTION FRACTION” (Northwestern University, priority 2023, published 2024).
# Legend:
# [1] = tested on: genes related to UPR in HUVEC; assay: mRNA levels of genes related to UPR (Xbp1s, Hspa5) in HUVEC treated with tunicamycin; assay type: cell-based, human; details: FIGS. 6N and 6O
# Method: RNA was isolated from cells or heart samples using RNA-STAT60 (Tel-Test), and reverse transcribed with Taqman Reverse Transcription Reagents (Invitrogen) according to manufacturers' instructions. Quantification of relative gene expression was done using Fast SYBR Green Master Mix (Applied Biosystems) and run on 7500 Fast Real-Time PCR system (Applied Biosystems). The relative gene expression was determined using differences in Ct values between the gene of interest and house-keeping control genes, which are Actb, Hprt1, and/or 18S, depending on the experiment.
# HUVECs = assay: Tube formation assay in HUVECs treated with tunicamycin; assay type: cell-based, human; details: HUVECs, 0, 30, 50, and 100 nM, FIG. 6P
# Method: The formation of tube networks was assessed as described before (Das et al., 2018). HUVECs and isolated ECs were seeded at 20,000 and 45,000cells per well in a 96-well plate coated with […] Matrigel (Fisher Scientific) or Cultrex (R & D Systems) reduced growth factor basement membrane matrix. The cells were treated with EGM-2 medium containing tunicamycin (Sigma-Aldrich) or ST045849 (Sigma-Aldrich) wherever mentioned. Following an 18 hour-incubation, tube networks from each biological replicate were analyzed in at least three random fields by light microscopy. The number of branch points (junctions), segments and meshes, and total length of tubule networks (total length of branching) were quantified by Fiji software (Angiogenesis Analyzer).
# [2] = tested on: protein N-glycosylation in HUVEC; assay: Lectin blot with ConA-HRP of HUVEC treated with tunicamycin (dose-curve); assay type: cell-based, human; details: preliminary dose-curve experiments, FIG. 6M
# Method: HUVECs were purchased from Lonza and grown in EGM2 media (Lonza). HEK293T cells were purchased from ATCC and cultured in DMEM (Corning) with 10% FBS (Bio-Techne Sales Corp.). All cells were maintained in a 37° C. incubator with 5% CO2 and were 70% to 90% confluent when collected for analyses.
# Nitrocellulose membranes with blotted proteins were blocked with PBS containing 2% Tween 20 for 2 minutes at room temperature. They were rinsed with PBS twice, then incubated with 1 μg/ml of ConA-HRP (Sigma-Aldrich) in PBS containing 0.05% Tween 20, 1 mM CaCl2), 1 mM MnCl2, and 1 mM MgCl2 for 16 hours at room temperature avoiding exposure to the light. The presence of proteins conjugated with the lectin was visualized using Super Surgical Western Pico ECL substrate (Pierce). Quantification of the images was done using ImageJ (NIH).
# OGT = molecular target: T1, OGT (Mus musculus, UniProt Q8CGY8); details: Liu et al., 2018; cited from earlier work
# T1 sequence (Q8CGY8 2-1046 limits assumed): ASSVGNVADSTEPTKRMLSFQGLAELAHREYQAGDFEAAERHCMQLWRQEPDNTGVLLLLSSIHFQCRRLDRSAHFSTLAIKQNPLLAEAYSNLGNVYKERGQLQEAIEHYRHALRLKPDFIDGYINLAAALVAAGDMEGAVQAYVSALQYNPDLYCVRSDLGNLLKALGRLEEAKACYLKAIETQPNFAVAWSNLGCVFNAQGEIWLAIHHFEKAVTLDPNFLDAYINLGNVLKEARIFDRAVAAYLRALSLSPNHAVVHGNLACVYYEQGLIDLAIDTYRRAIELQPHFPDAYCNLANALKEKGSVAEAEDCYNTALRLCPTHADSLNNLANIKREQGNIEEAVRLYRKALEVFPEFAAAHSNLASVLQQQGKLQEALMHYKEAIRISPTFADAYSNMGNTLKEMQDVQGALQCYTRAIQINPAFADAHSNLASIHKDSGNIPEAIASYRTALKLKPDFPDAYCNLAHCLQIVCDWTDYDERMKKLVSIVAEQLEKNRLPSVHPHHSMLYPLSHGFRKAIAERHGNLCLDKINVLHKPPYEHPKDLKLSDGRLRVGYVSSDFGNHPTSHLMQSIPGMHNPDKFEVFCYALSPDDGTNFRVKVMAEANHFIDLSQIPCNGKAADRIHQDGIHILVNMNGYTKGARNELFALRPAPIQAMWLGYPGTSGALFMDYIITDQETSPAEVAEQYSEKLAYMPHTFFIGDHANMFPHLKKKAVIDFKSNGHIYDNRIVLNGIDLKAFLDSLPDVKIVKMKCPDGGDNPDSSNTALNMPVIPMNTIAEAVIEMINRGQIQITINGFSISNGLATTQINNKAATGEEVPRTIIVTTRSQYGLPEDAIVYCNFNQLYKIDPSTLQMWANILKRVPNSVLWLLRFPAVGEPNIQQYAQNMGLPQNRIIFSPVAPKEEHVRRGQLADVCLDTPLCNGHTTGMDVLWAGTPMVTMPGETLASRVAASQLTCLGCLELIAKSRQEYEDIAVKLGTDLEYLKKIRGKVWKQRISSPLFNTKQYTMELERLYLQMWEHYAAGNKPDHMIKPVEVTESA
# protein O-GlcNAcylation = assay: Immunoblot of protein O-GlcNAcylation after intraperitoneal 5S-GlcNHex; assay type: in vivo, mouse
# Method: Protein extracts from frozen mouse hearts, isolated cardiomyocytes, fibroblasts, endothelial cells, and HUVECs were prepared by lysis in ice-cold RIPA buffer (150 mM NaCl, 25 mM Tris-HCl pH 7.4, 1% NP-40, 1% sodium deoxycholate, 0.1% SDS) containing protease inhibitors. For analyses of O-GlcNAcylation, 200 μg/ml of PUGNAC (Sigma-Aldrich) was added to the RIPA buffer. Proteins were separated by sodium dodecyl sulfate-polyacrylamide gel electrophoresis (SDS-PAGE) on 8 or 10% polyacrylamide gels and transferred to nitrocellulose membranes. Membranes were incubated with the following primary antibodies overnight, before the addition of HRP-conjugated secondary antibodies: HK1 (2024, Cell Signaling Technology); HK2 (2867, Cell Signaling Technology); GAPDH (60004-1-Ig, Proteintech); FLAG (F1804, Sigma-Aldrich); alpha-tubulin (66031-1-Ig, Proteintech); ATP synthase C (ab181243, Abcam); Phospho-AMPKα (Thr172) (4188, Cell Signaling Technology); AMPKα (2603, Cell Signaling Technology); GFPT1 (14132-1-Ig, Proteintech); RPN1 (12894-1-AP, Proteintech); RPN2 (10576-1-AP, Proteintech); DDOST (14916-1-AP, Proteintech); GFP (66002-1-Ig, Proteintech), O-Linked N-Acetylglucosamine (ab2739, Abcam); OGT (11576-2-AP, Proteintech); OGA (66033-1-Ig, Proteintech). The presence of target protein was visualized using Super Surgical Western Pico ECL substrate (Pierce). Quantification of the western blotting images was done using ImageJ (NIH).
# [3] = tested on: C57BL/6J mice treated with HFD_L-NAME; assay: HFD_L-NAME HFpEF mouse model: echocardiography, heart weight, treadmill exercise test; assay type: in vivo
# Description: HKΔE1HK1/Δ^E1HK1 (ΔE1HK1) and HK1^WT/WT wild-type (WT) control mice were generated by the Northwestern Mutagenesis and Transgenic core (De Jesus et al., 2022). Briefly, guide RNAs (gRNAs) were designed to induce a double-strand break (DSB) near the 5′ ATG start codon of HK1 in exon 1, and a DNA template containing an M-DYKDDDDK (Methionine-FLAG-tag) sequence with flanking homology arms to the HK1 gene near exon 1 was introduced into fertilized zygotes and implanted into surrogate mice. […] Mouse's genetic background is C57BL/6J. Tie2-Tet-OGA mice are generous gifts from Dr. Dillmann and Dr. Makino (Makino etal., 2015). Mice were maintained in the barrier facility at Northwestern University under specific pathogen-free conditions under the Federal and University guidelines and protocols approved by Institutional Animal Care and Use Committee (IACUC) with 12 hr light and 12 hr dark cycles and received normal chow (NC). Male and female ΔE1HK1 mice were used at 8-40 weeks of age. 8-week-old ΔE1HK1 male mice were fed HFD consisting of 60% fat, 20% protein, and 20% carbohydrates for 20 weeks. To produce the HFpEF mice model, C57BL/6J and Tie2-Tet-OGA mice were fed HFD and 0.5 g/L ofN.-Nitro-L-arginine methyl ester (LNAME, Sigma-Aldrich) for 8-15 weeks. For the induction of OGA overexpression, 0.5 g/L of DOX in drinking water was administered to Tie2-Tet-OGA mice until they were sacrificed. All animal studies were approved by the IACUC at Northwestern University and were performed in accordance with guidelines from the National Institutes of Health.
# Mice were anesthetized using isoflurane via a nasal cone, the chest was shaved, and the temperature of the mice was maintained at 37° C. The heart rate was continually monitored. Transthoracic echocardiography was performed using a VisualSonics Vevo 2100 system equipped with an MS400 transducer (FUJIFILM). LVEF and other indices of systolic function and thickness of LV walls were obtained from short-axis M-mode scans at the midventricular level, as indicated by the presence of papillary muscles. Apical four-chamber views were obtained for diastolic function measurements using pulsed-wave and tissue doppler imaging at the level of the mitral valve. During echocardiogram acquisition, isoflurane was maintained in 1.0-1.5% to maintain a heart rate in the range of 400-450 beats per min. All parameters were measured at least three times, and means are presented.
# The exercise exhaustion test was performed as previously described (Schiattarella et al., 2019). After three days of acclimatization to treadmill exercise, an exhaustion test was performed in the experimental groups of mice. Mice ran uphill (20°) on the treadmill (Columbus Instruments) starting at a warm-up speed of 5 m/min for 3 min after which speed was increased to 14 m/min for 2 min. Every subsequent 2 min, the speed was increased by 2 m/min until the mouse was exhausted. Exhaustion was defined as the inability of the mouse to return to running within 10 s of direct contact with an electric-stimulus grid. Running time was measured and running distance calculated.
# ECs from ΔE1HK1 mice = assay: Tube formation assay in isolated ECs from ΔE1HK1 mice treated with ST045849; assay type: cell-based, mouse; details: 20 μM, FIGS. 7H and 7I
# Method: Endothelial cells (ECs) were isolated from mouse hearts as previously described (Luo et al., 2016; van Beijnum et al., 2008). Briefly, dissected mouse heart was minced and incubated with PBS containing 2% fetal bovine serum (FBS), 1 mg/ml collagenase II (Worthington), and 0.6 U/ml dispase II (Sigma-Aldrich) for 30 mins at 37° C. 7.5 μg/ml of DNase I (Sigma-Aldrich) was added to the digested hearts and additional incubation for 30 minutes was performed. The digested material was filtered through 40 μm cell strainer, then incubated with biotinylated anti-CD45 antibody (Invitrogen) and depleted of CD45 positive cells using EasySep Mouse Streptavidin (STEMCELL technologies) as described in the manufacture's protocol. […]
# The formation of tube networks was assessed as described before (Das et al., 2018). […] Following an 18 hour-incubation, tube networks from each biological replicate were analyzed in at least three random fields by light microscopy. The number of branch points (junctions), segments and meshes, and total length of tubule networks (total length of branching) were quantified by Fiji software (Angiogenesis Analyzer).
# [4] = isolated ECs, intraperitoneal, dose dependency study, FIG. 9A
# [5] = single intraperitoneal injection of 50 mg/kg, FIG. 9M
# [6] = 30 mg/kg every 48 hours for 10 weeks following 5 weeks of HFD_L-NAME
# [7] = 50 mg/kg for 3 weeks following 5 weeks of HFD_L-NAME
# [8] = 20 and 30 mg/kg every 48 hours for 10 weeks following 5 weeks of HFD_L-NAME
molecule,measurement,setting,value
tunicamycin,mRNA levels of genes related to UPR,[1],acted in the same manner as observed in N-glycosylation experiments
same,"tube formation (number of junctions, total length of branching)",HUVECs,no significant effects
same,concentration at which reduced protein N-glycosylation was confirmed,[2],20 nM
same,concentration at which reduction of protein N-glycosylation reaches plateau,[2],50 nM
"CCCCCC(=O)N[C@H]1C(O)S[C@H](CO)[C@@H](O)[C@@H]1O (stereo partly drawn) [5S-GlcNHex, 2-deoxy-2-N-hexanamide-5-thio-D-glucopyranoside]",in vivo efficacy among OGT inhibitors,OGT,significant in vivo efficacy
same,dose at which reduction of protein O-GlcNAcylation reached a plateau,protein O-GlcNAcylation; [4],30 mg/kg
same,dose that initiated the reduction of protein O-GlcNAcylation,protein O-GlcNAcylation; [4],20 mg/kg
same,protein O-GlcNAcylation in various organs,"protein O-GlcNAcylation; single intraperitoneal injection of 50 mg/kg, C57BL6/J mice",effectively curtailed
same,time after which protein O-GlcNAcylation returns to baseline,protein O-GlcNAcylation; [5],72 h
same,time over which protein O-GlcNAcylation is reduced,protein O-GlcNAcylation; [5],48 h
same,protein O-GlcNAcylation in ECs in vivo,protein O-GlcNAcylation; summary statement,successfully reduces
same,increased E/A ratio,[3]; 20 mg/kg every 48 hours for 10 weeks following 5 weeks of HFD_L-NAME,reversed
same,exercise capacity (treadmill test),[3]; [6],significant improvement
same,increased E/A ratio,[3]; [6],reversed
same,EF,[3]; [7],no discernable effects
same,cardiac hypertrophy as indicated by PWTd,[3]; [7],ameliorated
same,cardiac hypertrophy as indicated by heart weights,[3]; [7],ameliorated
same,decreased e',[3]; [7],substantially restored
same,increased E/A,[3]; [7],substantially restored
same,increased E/e',[3]; [7],substantially restored
same,increased LA area,[3]; [7],substantially restored
same,HFpEF phenotype,"[3]; 50 mg/kg, FIGS. 9M-9X",reverses the HFpEF phenotype
same,EF,[3]; [8],no significant changes
same,LV diameter in systole (LVDs),[3]; [8],no significant changes
same,LVDd,[3]; [8],no significant changes
same,fraction shortening (FS),[3]; [8],no significant changes
same,increased LA sizes,[3]; [8],tendency to decrease
same,increased heart weights,[3]; [8],tendency to decrease
same,HFpEF phenotype,[3]; summary statement,reversal of the HFpEF phenotype
O=C(O)C1CC(=O)N(CCC23CC4CC(CC(C4)C2)C3)C(=Nc2ccc(Cl)cc2)S1 (stereo not shown) [ST045849],tube formation: number of junctions,ECs from ΔE1HK1 mice,significant enhancement
same,tube formation: total length of branching,ECs from ΔE1HK1 mice,significant enhancement
